Paper PMC9234961 (Journal of Medicinal Chemistry, 2022)
Like-named read-outs stand apart in the source and are kept apart here.

Key:
kinases (468) [1] = target: kinases (468) (Homo sapiens, UniProt P42338); conditions: PIK3CB; 1000 nM
kinases (468) [2] = target: kinases (468) (Homo sapiens, UniProt P51956); conditions: NEK3; 1000 nM
kinases (468) [3] = target: kinases (468) (Homo sapiens, UniProt P00519, F317L); conditions: 1000 nM
kinases (468) [4] = target: kinases (468) (Homo sapiens, UniProt P06213); conditions: INSR; 1000 nM
kinases (468) [5] = target: kinases (468) (Homo sapiens, UniProt Q9UQ88); conditions: CDC2L2; 1000 nM
kinases (468) (Homo sapiens, UniProt Q9UQ88), sequence (Q9UQ88 whole entry): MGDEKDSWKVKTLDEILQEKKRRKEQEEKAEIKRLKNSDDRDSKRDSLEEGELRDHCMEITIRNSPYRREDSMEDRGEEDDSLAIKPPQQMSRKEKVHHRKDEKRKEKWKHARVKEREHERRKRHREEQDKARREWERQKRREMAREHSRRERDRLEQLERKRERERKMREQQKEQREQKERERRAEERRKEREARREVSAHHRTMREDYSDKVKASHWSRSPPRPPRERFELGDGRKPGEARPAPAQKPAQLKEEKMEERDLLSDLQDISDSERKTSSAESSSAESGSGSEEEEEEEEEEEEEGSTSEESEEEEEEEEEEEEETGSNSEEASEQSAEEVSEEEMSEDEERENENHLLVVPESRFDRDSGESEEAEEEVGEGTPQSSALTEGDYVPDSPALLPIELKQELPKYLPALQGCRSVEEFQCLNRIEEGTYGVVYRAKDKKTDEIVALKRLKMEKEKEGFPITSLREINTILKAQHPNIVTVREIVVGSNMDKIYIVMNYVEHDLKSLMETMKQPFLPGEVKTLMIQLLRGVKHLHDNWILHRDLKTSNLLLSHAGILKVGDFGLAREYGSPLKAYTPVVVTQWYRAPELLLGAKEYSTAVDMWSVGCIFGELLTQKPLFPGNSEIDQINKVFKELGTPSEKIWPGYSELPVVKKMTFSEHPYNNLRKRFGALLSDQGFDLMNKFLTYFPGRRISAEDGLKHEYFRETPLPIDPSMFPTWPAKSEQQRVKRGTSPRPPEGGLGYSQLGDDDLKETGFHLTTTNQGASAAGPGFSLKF

kinases (468) [6] = target: kinases (468) (Homo sapiens, UniProt Q9UBF8); conditions: PIK4CB (PI4KB); 1000 nM
kinases (468) [7] = target: kinases (468) (Homo sapiens, UniProt Q15835); conditions: GRK1; 1000 nM
kinases (468) [8] = target: kinases (468) (Homo sapiens, UniProt O95835); conditions: LATS1; 1000 nM
kinases (468) [9] = target: kinases (468) (Homo sapiens, UniProt P21860); conditions: ERBB3; 1000 nM
kinases (468) [10] = target: kinases (468) (Homo sapiens, UniProt Q9BVS4); conditions: kinase RIOK2 (Entrez RIOK2); compound concentration 1000 nM
kinases (468) (Homo sapiens, UniProt Q9BVS4), sequence (Q9BVS4 whole entry): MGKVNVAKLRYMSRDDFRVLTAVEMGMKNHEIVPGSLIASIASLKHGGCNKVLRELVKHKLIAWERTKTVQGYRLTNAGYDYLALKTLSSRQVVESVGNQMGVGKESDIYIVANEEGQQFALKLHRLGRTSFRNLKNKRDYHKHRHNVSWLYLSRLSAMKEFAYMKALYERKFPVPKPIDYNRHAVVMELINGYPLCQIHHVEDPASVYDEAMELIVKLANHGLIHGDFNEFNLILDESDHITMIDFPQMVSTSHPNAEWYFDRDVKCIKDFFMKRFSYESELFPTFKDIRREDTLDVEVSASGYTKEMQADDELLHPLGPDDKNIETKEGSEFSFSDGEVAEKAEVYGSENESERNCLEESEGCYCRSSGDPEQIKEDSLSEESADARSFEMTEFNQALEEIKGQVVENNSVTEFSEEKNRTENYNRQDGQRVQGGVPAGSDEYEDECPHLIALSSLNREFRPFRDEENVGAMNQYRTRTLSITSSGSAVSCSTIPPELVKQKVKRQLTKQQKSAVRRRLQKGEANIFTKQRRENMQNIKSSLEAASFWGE

kinases (468) [11] = target: kinases (468) (Homo sapiens, UniProt Q02763); conditions: kinase TIE2 (Entrez TEK); compound concentration 1000 nM
kinases (468) [12] = target: kinases (468) (Homo sapiens, UniProt Q8IW41); conditions: MAPKAPK5; 1000 nM
kinases (468) [13] = target: kinases (468) (Homo sapiens, UniProt P54764); conditions: EPHA4; 1000 nM
kinases (468) (Homo sapiens, UniProt P54764), sequence (P54764 20-986): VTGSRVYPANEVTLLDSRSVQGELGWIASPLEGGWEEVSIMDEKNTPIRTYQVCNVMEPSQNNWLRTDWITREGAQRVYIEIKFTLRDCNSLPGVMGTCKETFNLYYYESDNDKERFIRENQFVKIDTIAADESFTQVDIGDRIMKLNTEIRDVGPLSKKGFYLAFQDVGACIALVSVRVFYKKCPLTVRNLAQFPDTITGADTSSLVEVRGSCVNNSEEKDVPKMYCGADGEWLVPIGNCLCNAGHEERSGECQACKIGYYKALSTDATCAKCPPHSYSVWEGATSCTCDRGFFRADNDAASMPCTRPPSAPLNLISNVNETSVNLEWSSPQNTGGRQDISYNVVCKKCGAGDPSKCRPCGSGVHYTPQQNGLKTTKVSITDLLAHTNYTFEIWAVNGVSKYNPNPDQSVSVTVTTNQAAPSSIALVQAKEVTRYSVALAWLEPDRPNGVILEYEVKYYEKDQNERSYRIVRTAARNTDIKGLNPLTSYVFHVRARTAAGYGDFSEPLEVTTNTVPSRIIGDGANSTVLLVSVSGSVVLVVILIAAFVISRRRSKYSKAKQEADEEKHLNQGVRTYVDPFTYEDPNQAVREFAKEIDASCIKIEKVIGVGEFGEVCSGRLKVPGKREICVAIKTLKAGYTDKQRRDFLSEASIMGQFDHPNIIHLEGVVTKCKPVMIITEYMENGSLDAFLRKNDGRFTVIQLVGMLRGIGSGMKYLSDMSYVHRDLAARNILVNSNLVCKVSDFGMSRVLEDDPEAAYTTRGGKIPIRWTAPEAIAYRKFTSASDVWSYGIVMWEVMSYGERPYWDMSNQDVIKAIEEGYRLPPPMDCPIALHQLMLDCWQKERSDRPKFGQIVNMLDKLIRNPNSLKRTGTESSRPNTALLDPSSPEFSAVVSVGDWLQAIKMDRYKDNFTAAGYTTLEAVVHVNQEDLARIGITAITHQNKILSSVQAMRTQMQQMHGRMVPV

kinases (468) [14] = target: kinases (468) (Homo sapiens, UniProt P35916); conditions: FLT4; 1000 nM
kinases (468) [15] = target: kinases (468) (Homo sapiens, UniProt P42336, Q546K); conditions: PIK3CA(Q546K); 1000 nM
kinases (468) [16] = target: kinases (468) (Homo sapiens, UniProt Q9H2X6); conditions: HIPK2; 1000 nM
kinases (468) [17] = target: kinases (468) (Homo sapiens, UniProt Q8TF76); conditions: HASPIN (GSG2); 1000 nM
kinases (468) [18] = target: kinases (468) (Homo sapiens, UniProt Q9BUB5); conditions: MKNK1; 1000 nM
kinases (468) [19] = target: kinases (468) (Homo sapiens, UniProt P42345); conditions: MTOR; 1000 nM
kinases (468) [20] = target: kinases (468) (Homo sapiens, UniProt P15056, V600E); conditions: BRAF(V600E); 1000 nM
kinases (468) [21] = target: kinases (468) (Homo sapiens, UniProt P10721, D816V); conditions: KIT(D816V); 1000 nM
kinases (468) [22] = target: kinases (468) (Homo sapiens, UniProt Q9H1R3); conditions: MYLK2; 1000 nM
kinases (468) [23] = target: kinases (468) (Homo sapiens, UniProt P11309); conditions: PIM1; 1000 nM
kinases (468) (Homo sapiens, UniProt P11309), sequence (P11309 whole entry): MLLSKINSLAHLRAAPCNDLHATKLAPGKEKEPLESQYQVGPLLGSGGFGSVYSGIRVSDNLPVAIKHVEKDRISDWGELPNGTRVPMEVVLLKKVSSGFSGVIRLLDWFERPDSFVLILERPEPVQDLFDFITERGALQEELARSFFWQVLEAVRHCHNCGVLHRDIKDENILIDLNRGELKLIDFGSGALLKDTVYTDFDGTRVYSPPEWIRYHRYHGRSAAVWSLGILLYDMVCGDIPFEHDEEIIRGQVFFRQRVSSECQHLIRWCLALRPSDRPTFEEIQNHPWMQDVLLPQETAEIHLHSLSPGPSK

kinases (468) [24] = target: kinases (468) (Homo sapiens, UniProt Q16584); conditions: MLK3 (MAP3K11); 1000 nM
kinases (468) [25] = target: kinases (468) (Homo sapiens, UniProt Q9Y243); conditions: AKT3; 1000 nM
kinases (468) [26] = target: kinases (468) (Homo sapiens, UniProt Q96BR1); conditions: kinase SGK3 (Entrez SGK3); compound concentration 1000 nM
kinases (468) [27] = target: kinases (468) (Homo sapiens, UniProt P0C1S8); conditions: kinase WEE2 (Entrez WEE2); compound concentration 1000 nM
kinases (468) [28] = target: kinases (468) (Homo sapiens, UniProt O60285); conditions: ARK5 (NUAK1); 1000 nM
kinases (468) (Homo sapiens, UniProt O60285), sequence (O60285 whole entry): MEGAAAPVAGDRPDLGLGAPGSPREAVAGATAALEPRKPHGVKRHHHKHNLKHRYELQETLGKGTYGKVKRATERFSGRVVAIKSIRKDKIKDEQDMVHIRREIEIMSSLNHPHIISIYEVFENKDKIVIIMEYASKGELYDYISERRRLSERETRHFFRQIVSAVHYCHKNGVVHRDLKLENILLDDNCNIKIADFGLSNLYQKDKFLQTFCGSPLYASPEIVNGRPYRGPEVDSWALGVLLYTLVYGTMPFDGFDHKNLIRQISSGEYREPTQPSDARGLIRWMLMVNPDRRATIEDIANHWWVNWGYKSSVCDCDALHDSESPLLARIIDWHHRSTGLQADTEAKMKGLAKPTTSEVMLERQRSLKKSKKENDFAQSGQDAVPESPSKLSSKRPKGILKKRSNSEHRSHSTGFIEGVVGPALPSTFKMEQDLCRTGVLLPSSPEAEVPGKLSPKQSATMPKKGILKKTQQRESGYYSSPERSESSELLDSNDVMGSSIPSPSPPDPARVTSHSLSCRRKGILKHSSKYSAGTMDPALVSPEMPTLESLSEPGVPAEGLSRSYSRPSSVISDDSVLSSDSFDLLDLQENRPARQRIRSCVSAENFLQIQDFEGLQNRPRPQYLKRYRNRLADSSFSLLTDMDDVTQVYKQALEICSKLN

kinases (468) [29] = target: kinases (468) (Homo sapiens, UniProt Q9NWZ3); conditions: IRAK4; 1000 nM
kinases (468) [30] = target: kinases (468) (Homo sapiens, UniProt Q15746); conditions: MYLK; 1000 nM
kinases (468) [31] = target: kinases (468) (Homo sapiens, UniProt Q9UBE8); conditions: NLK; 1000 nM
kinases (468) (Homo sapiens, UniProt Q9UBE8), sequence (Q9UBE8 whole entry): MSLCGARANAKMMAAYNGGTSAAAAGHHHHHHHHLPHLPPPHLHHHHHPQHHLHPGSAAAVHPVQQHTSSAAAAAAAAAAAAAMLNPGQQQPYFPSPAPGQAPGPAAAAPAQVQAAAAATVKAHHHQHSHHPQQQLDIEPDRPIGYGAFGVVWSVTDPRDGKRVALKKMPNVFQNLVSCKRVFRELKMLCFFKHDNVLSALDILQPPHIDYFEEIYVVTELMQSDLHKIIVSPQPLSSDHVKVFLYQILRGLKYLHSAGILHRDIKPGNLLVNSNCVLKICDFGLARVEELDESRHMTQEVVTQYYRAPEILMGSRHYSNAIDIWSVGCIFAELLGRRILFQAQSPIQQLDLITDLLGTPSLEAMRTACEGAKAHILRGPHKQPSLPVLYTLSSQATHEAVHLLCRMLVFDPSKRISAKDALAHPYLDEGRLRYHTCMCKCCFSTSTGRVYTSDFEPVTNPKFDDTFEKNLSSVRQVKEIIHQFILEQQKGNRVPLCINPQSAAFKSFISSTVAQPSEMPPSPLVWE

kinases (468) [32] = target: kinases (468) (Homo sapiens, UniProt O75914); conditions: PAK3; 1000 nM
kinases (468) [33] = target: kinases (468) (Homo sapiens, UniProt Q16513); conditions: PKN2; 1000 nM
kinases (468) [34] = target: kinases (468) (Homo sapiens, UniProt Q9Y5S2); conditions: MRCKB (CDC42BPB); 1000 nM
kinases (468) [35] = target: kinases (468) (Homo sapiens, UniProt P36888, D835Y); conditions: FLT3(D835Y); 1000 nM

kinases (468) (Homo sapiens, UniProt P00519, F317L), sequence (P00519 whole entry F317L): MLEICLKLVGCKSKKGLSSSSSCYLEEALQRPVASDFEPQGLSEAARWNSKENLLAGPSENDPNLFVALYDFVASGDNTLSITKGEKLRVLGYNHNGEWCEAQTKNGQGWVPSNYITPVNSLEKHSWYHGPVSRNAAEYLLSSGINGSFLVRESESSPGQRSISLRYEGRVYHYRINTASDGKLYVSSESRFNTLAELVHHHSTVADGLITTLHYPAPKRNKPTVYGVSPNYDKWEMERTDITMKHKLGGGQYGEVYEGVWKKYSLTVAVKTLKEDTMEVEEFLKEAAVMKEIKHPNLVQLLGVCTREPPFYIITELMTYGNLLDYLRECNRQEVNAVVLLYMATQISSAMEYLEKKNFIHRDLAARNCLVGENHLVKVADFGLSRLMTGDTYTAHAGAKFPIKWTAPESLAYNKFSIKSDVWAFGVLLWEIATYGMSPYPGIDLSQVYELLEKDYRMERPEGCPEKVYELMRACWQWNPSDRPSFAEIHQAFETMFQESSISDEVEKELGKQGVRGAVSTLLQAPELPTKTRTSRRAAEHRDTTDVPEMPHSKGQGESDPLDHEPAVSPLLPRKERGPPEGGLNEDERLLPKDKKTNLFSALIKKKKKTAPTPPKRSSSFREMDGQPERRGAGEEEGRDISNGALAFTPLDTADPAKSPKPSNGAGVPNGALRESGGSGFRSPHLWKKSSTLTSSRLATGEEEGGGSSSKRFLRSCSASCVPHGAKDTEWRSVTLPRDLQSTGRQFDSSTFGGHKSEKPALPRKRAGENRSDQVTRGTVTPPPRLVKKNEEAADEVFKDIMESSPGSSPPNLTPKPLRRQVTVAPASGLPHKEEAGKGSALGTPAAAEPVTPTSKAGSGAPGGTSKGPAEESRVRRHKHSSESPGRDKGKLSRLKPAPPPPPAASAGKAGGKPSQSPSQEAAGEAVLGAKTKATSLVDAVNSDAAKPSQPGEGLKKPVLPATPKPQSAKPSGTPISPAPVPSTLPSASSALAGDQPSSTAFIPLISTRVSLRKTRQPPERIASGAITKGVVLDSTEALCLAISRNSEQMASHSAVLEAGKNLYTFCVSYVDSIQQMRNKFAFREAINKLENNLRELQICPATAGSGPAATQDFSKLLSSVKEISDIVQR

For C[C@H]1C[C@@H](O)CN(c2ncc(Cl)c(Nc3ccc4c(c3)c3c(c(=O)n4C)OCC(F)(F)[C@H](C4CC4)N3)n2)C1 [CCT373566_9A], the “Percent Control” value (kinases (468) [1]) was 85%, the “Percent Control” value (kinases (468) [2]) was 98% and the “Percent Control” value (kinases (468) [3]; ABL1(F317L)-nonphosphorylated) was 100%. The “Percent Control” value (kinases (468) [3]; ABL1(F317L)-phosphorylated) was 93%, the “Percent Control” value (kinases (468) [4]) was 98% and the “Percent Control” value (kinases (468) [5]) was 97%. For the same compound, the “Percent Control” value (kinases (468) [6]) was 94%, the “Percent Control” value (kinases (468) [7]) was 100% and the “Percent Control” value (kinases (468) [8]) was 94%. The “Percent Control” value (kinases (468) [9]) was 85%, the “Percent Control” value (kinases (468) [10]) was 100% and the “Percent Control” value (kinases (468) [11]) was 100%. The “Percent Control” value (kinases (468) [12]) was 100%, the “Percent Control” value (kinases (468) [13]) was 100% and the “Percent Control” value (kinases (468) [14]) was 100%. The “Percent Control” value (kinases (468) [15]) was 89%, the “Percent Control” value (kinases (468) [16]) was 100% and the “Percent Control” value (kinases (468) [17]) was 100%. For the same compound, the “Percent Control” value (kinases (468) [18]) was 91%, the “Percent Control” value (kinases (468) [19]) was 87% and the “Percent Control” value (kinases (468) [20]) was 100%. The “Percent Control” value (kinases (468) [21]) was 100%, the “Percent Control” value (kinases (468) [22]) was 100% and the “Percent Control” value (kinases (468) [23]) was 100%. The “Percent Control” value (kinases (468) [24]) was 100%, the “Percent Control” value (kinases (468) [25]) was 93% and the “Percent Control” value (kinases (468) [26]) was 99%. For the same compound, the “Percent Control” value (kinases (468) [27]) was 93%, the “Percent Control” value (kinases (468) [28]) was 98% and the “Percent Control” value (kinases (468) [29]) was 80%. For the same compound, the “Percent Control” value (kinases (468) [30]) was 91%, the “Percent Control” value (kinases (468) [31]) was 100% and the “Percent Control” value (kinases (468) [32]) was 99%. For the same compound, the “Percent Control” value (kinases (468) [33]) was 100%, the “Percent Control” value (kinases (468) [34]) was 100% and the “Percent Control” value (kinases (468) [35]) was 90%.
